Measured values as given in publication PMC7251097, “Aspartate/asparagine-β-hydroxylase: a high-throughput mass spectrometric assay for discovery of small molecule inhibitors” (Scientific Reports, 2020).
Where a name gives a salt, the structure may show the parent alone. Read-outs that look alike come from different tables or passages of the source.

Target: T1, His6-AspH315–758 (human aspartate/asparagine-β-hydroxylase, AspH) (Homo sapiens, UniProt Q12797)
T1 construct: N-Terminally His6-tagged human AspH315–758 (His6-AspH315–758) was produced in E. coli BL21 (DE3) cells; made in house; host or cells: E. coli BL21 (DE3), pET-28a(+) vector
T1 sequence (Q12797 315-758): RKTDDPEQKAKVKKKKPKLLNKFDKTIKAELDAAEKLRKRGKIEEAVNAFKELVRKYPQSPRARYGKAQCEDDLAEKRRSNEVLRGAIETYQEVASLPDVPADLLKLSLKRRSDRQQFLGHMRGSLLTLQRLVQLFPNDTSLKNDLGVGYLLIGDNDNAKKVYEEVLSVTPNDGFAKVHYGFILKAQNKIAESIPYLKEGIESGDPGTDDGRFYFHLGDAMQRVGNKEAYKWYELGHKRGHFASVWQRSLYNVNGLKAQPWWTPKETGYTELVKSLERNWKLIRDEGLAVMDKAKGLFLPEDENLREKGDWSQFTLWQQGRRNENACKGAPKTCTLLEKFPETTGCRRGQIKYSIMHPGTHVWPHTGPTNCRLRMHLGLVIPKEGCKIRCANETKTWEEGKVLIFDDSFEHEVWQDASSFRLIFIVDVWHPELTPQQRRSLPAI
Assay: SPE-MS AspH inhibition assay (LOPAC screen at fixed 20 μM and IC50 dose-response), hydroxylation of cyclic peptide hFX-CP101–119
Assay type: biochemical
Conditions: for inhibition at 20 µM: read-out: Plate 2 (% inhibition); for IC50: 50 nM His6-AspH315–758, 1.0 μM hFX-CP101–119, 3 μM 2OG, 2 μM Fe(II), 50 mM HEPES pH 7.5, 20 °C, mean ± SD, n = 2 (2,4-PDCA n = 10), read-out: IC50

[1] = LOPAC Plate 4, compound at 20 uM, substrate conversion
[2] = LOPAC Plate 4, compound at 20 uM
[3] = LOPAC compound at 20uM, plate 2, conversion of substrate peptide
[4] = LOPAC compound at 20uM, plate 2, normalised to DMSO and 2,4-PDCA controls
[5] = LOPAC compound at 20uM, plate 3, conversion of substrate peptide
[6] = LOPAC compound at fixed 20 uM, plate 1, normalised to DMSO and 2,4-PDCA controls
[7] = LOPAC compound at fixed 20 uM, substrate conversion, plate 1

Oc1ccc2ccccc2c1SSc1c(O)ccc2ccccc12 [IPA-3, reference compound]
Inhibition at 20 µM [%] (AspH activity, fixed compound concentration 20 μM, initial LOPAC screen, 0.5%v/v DMSO): 100.0% | % conversion [1]: 2.34%

O=C(Nc1nc2ccccc2n1CCN1CCOCC1)c1cccc([N+](=O)[O-])c1 [IRAK-1/4 Inhibitor I]
% inhibition [2]: -1.55% | % conversion [1]: 37.00%

CCCCCN(C)CCC(O)(P(=O)([O-])O)P(=O)(O)O.[Na+] [Ibandronate sodium]
% conversion [1]: 30.05%

CC(C)C(=O)c1c(C(C)C)nn2ccccc12 [Ibudilast]
Plate 2 (% conversion) [3]: 39.05% | inhibition at 20 µM [4]: -9.26%

CC(=O)[C@]1(O)Cc2c(O)c3c(c(O)c2[C@@H](O[C@H]2C[C@H](N)[C@H](O)[C@H](C)O2)C1)C(=O)c1ccccc1C3=O [Idarubicin]
Plate 2 (% conversion) [3]: 34.69% | inhibition at 20 µM [4]: 3.78%

c1ccc2c(c1)OCC(C1=NCCN1)O2 (stereo not shown) [Idazoxan hydrochloride]
Plate 3 (% conversion) [5]: 39.66%

CC(C(O)c1ccc(O)cc1)N1CCC(Cc2ccccc2)CC1.CC(C(O)c1ccc(O)cc1)N1CCC(Cc2ccccc2)CC1.O=C(O)C(O)C(O)C(=O)O (stereo not shown) [Ifenprodil tartrate]
Plate 3 (% conversion) [5]: 17.74%

O=C1CCC(c2ccc(-n3ccnc3)cc2)=NN1 [Imazodan]
Plate 2 (% conversion) [3]: 38.21% | inhibition at 20 µM [4]: -6.74%

N=C(N)SCCc1cnc[nH]1 [Imetit dihydrobromide]
Plate 3 (% conversion): 29.48%

Cl.O=C(O)Cc1c[nH]cn1 [Imidazole-4-acetic acid hydrochloride]
Plate 2 (% conversion): 36.46% | Plate 2 (% inhibition) (20 µM): -1.52%

C[C@@H](O)[C@H]1C(=O)N2C(C(=O)O)=C(SCCN=CN)C[C@H]12 [Imipenem monohydrate]
Plate 1 (% inhibition) [6]: 6.01% | Plate 1 (% conversion) [7]: 33.85%

CN[C@@H]1C[C@@H](c2ccc(Cl)c(Cl)c2)c2ccccc21 [Indatraline hydrochloride]
Plate 3 (% conversion): 41.79%

CC(C)(C)NC(=O)[C@@H]1CN(Cc2cccnc2)CCN1C[C@@H](O)C[C@@H](Cc1ccccc1)C(=O)N[C@H]1c2ccccc2C[C@H]1O.O=S(=O)(O)O [Indinavir sulfate salt hydrate]
Plate 1 (% inhibition) [6]: -10.28% | Plate 1 (% conversion) [7]: 39.32%

O=C1Nc2ccccc2/C1=C1/Nc2ccccc2/C1=N\O [Indirubin-3-oxime]
Plate 1 (% inhibition) [6]: 11.42% | Plate 1 (% conversion) [7]: 32.04%

NC(=O)CI [Iodoacetamide, reference compound]
Inhibition at 20 µM [%]: 102.0%

CC(C)NNC(=O)c1ccncc1.O=P(O)(O)O [Iproniazid phosphate]
Plate 3 (% conversion) [5]: 39.38%

O=C(/C=C/c1ccc(O)cc1)c1ccc(O)cc1O [Isoliquiritigenin]
Plate 3 (% conversion) [5]: 31.17%

CCC(NC(C)C)C(O)c1ccc(O)c(O)c1.CS(=O)(=O)O (stereo not shown) [Isotharine mesylate]
Plate 3 (% conversion) [5]: 6.91%

O=C1c2ccccc2C(=O)c2c(NCCc3ccc(O)cc3)ccc(NCCc3ccc(O)cc3)c21 [JFD00244]
Plate 2 (% conversion) [3]: 12.89% | Plate 2 (% inhibition) [4]: 68.90%

Clc1ccc(N/N=C(\c2ccccc2)c2ccccn2)nc1 [JIB-04, reference compound]
IC50: 4.24 ± 0.3 µM

COc1cc(SC)ccc1C(=O)N1CCC(Cc2ccccc2)CC1 [JX401]
Plate 2 (% conversion) [3]: 45.70% | Plate 2 (% inhibition) [4]: -29.09%

N=C(N)SCCc1ccc(OCc2ccc([N+](=O)[O-])cc2)cc1 [KB-R7493]
% inhibition [2]: -22.55% | % conversion [1]: 44.17%

C=C(C)[C@H]1CN[C@H](C(=O)O)[C@H]1CC(=O)O [Kainic acid]
Plate 3 (% conversion): 38.81%

O=C1Cc2c([nH]c3ccc(Br)cc23)-c2ccccc2N1 [Kenpaullone]
Plate 3 (% conversion) [5]: 35.01%

O=C(c1ccc(F)cc1)C1CCN(CCn2c(=O)[nH]c3ccccc3c2=O)CC1 [Ketanserin tartrate]
% conversion [1]: 19.47%

CC(=O)N1CCN(c2ccc(OCC3COC(Cn4ccnc4)(c4ccc(Cl)cc4Cl)O3)cc2)CC1 (stereo not shown) [Ketoconazole]
Plate 3 (% conversion): 46.43%

CC(C(=O)O)c1cccc(C(=O)c2ccccc2)c1 (stereo not shown) [Ketoprofen]
Plate 3 (% conversion) [5]: 34.58%

NC(CO)(CO)CO.O=C(c1ccccc1)c1ccc2n1CCC2C(=O)O (stereo not shown) [Ketorolac tris salt]
Plate 3 (% conversion) [5]: 36.01%

NC[C@H](O)c1ccc(O)c(O)c1.O=C(O)C(O)C(O)C(=O)O [L(-)-Norepinephrine bitartrate]
Plate 1 (% inhibition) [6]: 89.51% | Plate 1 (% conversion) [7]: 5.81%

N[C@@H](CCCC(=O)O)C(=O)O [L-2-aminoadipic acid]
Plate 1 (% inhibition) [6]: -2.85% | Plate 1 (% conversion) [7]: 36.83%

N[C@@H](Cc1ccc(O)c(O)c1)C(=O)O [L-3,4-Dihydroxyphenylalanine]
Plate 2 (% conversion) [3]: 10.03% | Plate 2 (% inhibition) [4]: 77.43%

Ic1ccccc1CNC1C2CCN(CC2)C1C(c1ccccc1)c1ccccc1.O=C(O)C(=O)O [L-703,606 oxalate salt hydrate]
Plate 3 (% conversion): 12.64%

N=C(N)NCCC[C@H](N)C(=O)O [L-Arginine]
Plate 1 (% conversion): 38.11% | Plate 1 (% inhibition): -6.68%

N[C@@H](CC(=O)O)C(=O)O [L-Aspartic acid]
Plate 1 (% inhibition) [6]: -3.19% | Plate 1 (% conversion) [7]: 36.94%

N[C@H](C(=O)O)[C@H](Cc1ccccc1)C(=O)O [L-Beta-threo-benzyl-aspartate]
% conversion [1]: 30.62%

CCCCS(=N)(=O)CC[C@H](N)C(=O)O (stereo partly drawn) [L-Buthionine-sulfoximine]
Plate 1 (% inhibition) [6]: 3.50% | Plate 1 (% conversion) [7]: 34.70%

NC(N)=NOCC[C@H](N)C(=O)O.O=S(=O)(O)O [L-Canavanine sulfate]
Plate 1 (% conversion): 38.13% | Plate 1 (% inhibition): -6.73%

N[C@H]1CON=C1O [L-Cycloserine]
Plate 1 (% inhibition) [6]: -2.43% | Plate 1 (% conversion) [7]: 36.69%

N[C@@H](CS(=O)O)C(=O)O [L-Cysteinesulfinic Acid]
Plate 1 (% inhibition) [6]: 8.76% | Plate 1 (% conversion) [7]: 32.93%

N[C@H](C(=O)O)[C@H](O)c1ccc(O)c(O)c1 [L-DOPS]
Plate 3 (% conversion) [5]: 7.53%

Cl.N[C@@H](CCC(=O)O)C(=O)O [L-Glutamic acid hydrochloride]
Plate 2 (% conversion) [3]: 29.01% | Plate 2 (% inhibition) [4]: 20.74%

NC(=O)CC[C@H](N)C(=O)O [L-Glutamine]
Plate 2 (% conversion) [3]: 35.03% | inhibition at 20 µM [4]: 2.77%

N[C@@H](Cn1ccc(=O)c(O)c1)C(=O)O [L-Mimosine from Koa hoale seeds]
% conversion: 35.13% | % inhibition [2]: 3.94%

N[C@@H](Cn1ccc(=O)c(O)c1)C(=O)O [L-Mimosine, reference compound]
IC50: 5.06 ± 0.28 µM

CC(=N)NCCCC[C@H](N)C(=O)O.Cl [L-N6-(1-Iminoethyl)lysine hydrochloride]
Plate 3 (% conversion) [5]: 40.67%

N[C@@H](Cc1c[nH]c2ccccc12)C(=O)O [L-Tryptophan]
% conversion [1]: 29.06%

C=CC[C@H](N)C(=O)O [L-allylglycine]
Plate 1 (% inhibition) [6]: 0.29% | Plate 1 (% conversion) [7]: 35.78%

C[C@](N)(Cc1ccc(O)cc1)C(=O)O [L-alpha-Methyl-p-tyrosine]
Plate 3 (% conversion): 32.12%

O=C(O)[C@@H]1CCN1 [L-azetidine-2-carboxylic acid]
Plate 1 (% conversion): 39.44% | Plate 1 (% inhibition): -10.62%

CSc1ccccc1N1CCN(CCCCCC(=O)NC2CCCc3ccccc32)CC1 (stereo not shown) [LP44]
Plate 3 (% conversion) [5]: 36.33%

Cl.O=C(CCCCCN1CCN(c2ccccc2-c2ccccc2)CC1)NC1CCCc2ccccc21 (stereo not shown) [LP 12 hydrochloride hydrate]
% inhibition [2]: -43.43% | % conversion [1]: 51.29%

CC(CCc1ccccc1)NCC(O)c1ccc(O)c(C(N)=O)c1 (stereo not shown) [Labetalol hydrochloride]
Plate 3 (% conversion) [5]: 36.38%

Nc1nnc(-c2cccc(Cl)c2Cl)c(N)n1 [Lamotrigine]
Plate 3 (% conversion) [5]: 33.75%

Cc1oncc1C(=O)Nc1ccc(C(F)(F)F)cc1 [Leflunomide]
Plate 3 (% conversion) [5]: 37.93%

COC(=O)C1=C(C)NC(C)=C(C(=O)OC(C)(C)CN(C)CCC(c2ccccc2)c2ccccc2)C1c1cccc([N+](=O)[O-])c1.COC(=O)C1=C(C)NC(C)=C(C(=O)OC(C)(C)CN(C)CCC(c2ccccc2)c2ccccc2)C1c1cccc([N+](=O)[O-])c1.Cl.Cl.O (stereo not shown) [Lercanidipine hydrochloride hemihydrate]
Plate 1 (% inhibition) [6]: 25.41% | Plate 1 (% conversion) [7]: 27.34%

CC[C@@H](C(N)=O)N1CCCC1=O [Levetiracetam]
Plate 3 (% conversion): 34.85%

CC(=O)NC[C@H]1CN(c2ccc(N3CCOCC3)c(F)c2)C(=O)O1 [Linezolid]
Plate 1 (% inhibition) [6]: -10.54% | Plate 1 (% conversion) [7]: 39.41% | Plate 5 (% inhibition) (plate 5 (Pfitzer), test compounds at fixed 20 μM): 44.21% | Plate 5 (% conversion) (plate 5 (Pfitzer), test compounds at fixed 20 μM, mean conversion DMSO 32.88): 21.27%
